Active and inactive are the calls of the source. No cut-off for these calls is given here.
Assays:
Cathepsin S = Cathepsin S (Homo sapiens, UniProt P25774); assay: Inhibition of human recombinant cathepsin S
Cathepsin B = Cathepsin B (Homo sapiens, UniProt P07858); assay: Inhibition of human recombinant cathepsin B
Trypsin (Homo sapiens) = Trypsin (Homo sapiens) (UniProt P07477+P07478+P35030); assay: Inhibition of trypsin; format: protein assay
Procathepsin L = Procathepsin L (Homo sapiens, UniProt P07711); assay: Inhibition of human recombinant cathepsin L
Sequence of Procathepsin L (P07711 whole entry): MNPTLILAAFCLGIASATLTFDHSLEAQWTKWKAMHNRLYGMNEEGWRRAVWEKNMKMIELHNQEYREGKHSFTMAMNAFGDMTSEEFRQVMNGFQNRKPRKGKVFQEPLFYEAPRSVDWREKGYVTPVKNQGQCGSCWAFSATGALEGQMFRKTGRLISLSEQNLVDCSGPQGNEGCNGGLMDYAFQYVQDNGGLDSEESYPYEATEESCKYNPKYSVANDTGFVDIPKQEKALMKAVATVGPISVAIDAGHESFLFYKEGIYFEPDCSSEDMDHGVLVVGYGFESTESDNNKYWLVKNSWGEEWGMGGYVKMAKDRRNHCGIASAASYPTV

Cathepsin K = biological target: T1, Cathepsin K (Homo sapiens, UniProt P43235); assay: Inhibition of human recombinant cathepsin K
T1 sequence (P43235 whole entry): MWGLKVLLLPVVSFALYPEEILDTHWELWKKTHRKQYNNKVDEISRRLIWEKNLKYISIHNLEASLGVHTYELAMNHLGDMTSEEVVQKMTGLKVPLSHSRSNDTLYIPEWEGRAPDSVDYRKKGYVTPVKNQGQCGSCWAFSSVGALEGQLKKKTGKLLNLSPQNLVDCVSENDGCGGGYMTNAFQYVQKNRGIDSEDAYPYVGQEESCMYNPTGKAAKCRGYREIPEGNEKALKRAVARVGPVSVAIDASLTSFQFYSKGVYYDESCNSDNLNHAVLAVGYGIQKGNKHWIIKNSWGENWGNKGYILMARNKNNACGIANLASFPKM

Cathepsin L2 = biological target: T2, Cathepsin L2 (Homo sapiens, UniProt O60911); assay: Inhibition of human recombinant cathepsin V
T2 sequence (O60911 whole entry): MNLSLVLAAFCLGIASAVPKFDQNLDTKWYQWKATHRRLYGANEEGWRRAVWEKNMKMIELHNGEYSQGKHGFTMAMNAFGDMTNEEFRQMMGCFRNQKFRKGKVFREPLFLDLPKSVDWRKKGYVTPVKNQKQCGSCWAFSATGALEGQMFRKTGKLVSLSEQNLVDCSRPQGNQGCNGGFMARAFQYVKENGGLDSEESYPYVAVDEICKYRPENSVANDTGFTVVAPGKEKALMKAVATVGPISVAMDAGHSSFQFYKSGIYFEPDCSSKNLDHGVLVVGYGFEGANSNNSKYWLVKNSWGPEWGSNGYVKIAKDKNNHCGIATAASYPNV

[1] = biological target: Prothrombin (Homo sapiens) (UniProt P00734); assay: Inhibition of thrombin
Cathepsin F = biological target: T3, Cathepsin F (Homo sapiens, UniProt Q9UBX1); assay: Inhibition of human recombinant cathepsin F
T3 sequence (Q9UBX1 whole entry): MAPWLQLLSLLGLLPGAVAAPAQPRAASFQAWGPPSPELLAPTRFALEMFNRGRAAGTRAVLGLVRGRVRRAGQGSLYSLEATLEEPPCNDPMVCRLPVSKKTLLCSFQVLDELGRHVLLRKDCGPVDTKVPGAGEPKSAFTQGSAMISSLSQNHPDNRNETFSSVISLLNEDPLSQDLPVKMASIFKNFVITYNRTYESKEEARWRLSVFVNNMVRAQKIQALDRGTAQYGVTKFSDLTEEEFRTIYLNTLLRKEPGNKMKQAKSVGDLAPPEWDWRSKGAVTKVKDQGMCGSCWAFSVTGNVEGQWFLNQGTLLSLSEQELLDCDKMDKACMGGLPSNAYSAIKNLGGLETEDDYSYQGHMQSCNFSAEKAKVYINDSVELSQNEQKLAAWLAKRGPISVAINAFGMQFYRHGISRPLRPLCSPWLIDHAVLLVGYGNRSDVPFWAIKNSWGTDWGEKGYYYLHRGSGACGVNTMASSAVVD

Pro-cathepsin H = biological target: T4, Pro-cathepsin H (Homo sapiens, UniProt P09668); assay: Inhibition of human recombinant cathepsin H
T4 sequence (P09668 whole entry): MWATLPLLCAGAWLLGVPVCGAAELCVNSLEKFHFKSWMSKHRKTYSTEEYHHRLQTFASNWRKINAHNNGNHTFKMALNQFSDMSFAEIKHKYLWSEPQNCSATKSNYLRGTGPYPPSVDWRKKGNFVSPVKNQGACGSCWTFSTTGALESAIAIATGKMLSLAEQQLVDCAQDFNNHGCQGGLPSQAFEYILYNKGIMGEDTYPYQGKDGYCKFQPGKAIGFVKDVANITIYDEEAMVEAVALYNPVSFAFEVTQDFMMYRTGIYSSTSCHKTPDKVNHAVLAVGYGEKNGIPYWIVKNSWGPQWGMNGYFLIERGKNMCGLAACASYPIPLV

Dipeptidyl peptidase 1 = Dipeptidyl peptidase 1 (Homo sapiens, UniProt P53634); assay: Inhibition of human recombinant cathepsin C
Sequence of Dipeptidyl peptidase 1 (P53634 25-134 limits assumed): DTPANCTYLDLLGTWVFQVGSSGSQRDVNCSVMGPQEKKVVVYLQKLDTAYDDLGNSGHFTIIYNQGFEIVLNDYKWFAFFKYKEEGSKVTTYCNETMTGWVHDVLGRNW
Sequence of Dipeptidyl peptidase 1 (P53634 231-394 limits assumed): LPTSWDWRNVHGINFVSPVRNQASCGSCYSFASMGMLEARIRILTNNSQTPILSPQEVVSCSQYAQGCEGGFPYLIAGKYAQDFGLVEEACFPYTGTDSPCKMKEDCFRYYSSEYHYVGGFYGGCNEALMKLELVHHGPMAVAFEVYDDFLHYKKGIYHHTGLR
Sequence of Dipeptidyl peptidase 1 (P53634 395-463 limits assumed): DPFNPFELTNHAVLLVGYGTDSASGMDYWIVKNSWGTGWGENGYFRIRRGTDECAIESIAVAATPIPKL

Sequence of Cathepsin S (P25774 whole entry): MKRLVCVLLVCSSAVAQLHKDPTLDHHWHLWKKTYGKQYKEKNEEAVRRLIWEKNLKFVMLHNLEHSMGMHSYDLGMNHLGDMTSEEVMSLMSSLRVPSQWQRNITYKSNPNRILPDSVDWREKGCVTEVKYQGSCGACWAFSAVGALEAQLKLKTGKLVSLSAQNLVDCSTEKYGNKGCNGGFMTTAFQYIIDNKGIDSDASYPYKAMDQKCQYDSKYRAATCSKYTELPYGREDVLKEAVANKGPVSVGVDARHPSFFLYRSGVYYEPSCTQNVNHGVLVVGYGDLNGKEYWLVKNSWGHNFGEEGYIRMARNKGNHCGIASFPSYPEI

| IC50 (Cathepsin S) [µM] | IC50 (Cathepsin B) [µM] | Activity (Trypsin (Homo sapiens)) | IC50 (Procathepsin L) [µM] | IC50 (Cathepsin K) [µM] | IC50 (Cathepsin L2) [µM] | Activity [1] | IC50 (Cathepsin F) [µM] | IC50 (Pro-cathepsin H) [µM] | IC50 (Dipeptidyl peptidase 1) [µM] | Compound |
| --- | --- | --- | --- | --- | --- | --- | --- | --- | --- | --- |
| 0.016 | 0.001 | inactive | 0.022 | 0.038 | 0.131 | inactive | 0.331 | 2.65 | 0.018 | Cc1cccc(O[C@H]2CCN3C[C@H]2OC3=O)c1C (relative stereo) |
| 4.55 | 0.158 | inactive | 5.82 | > 30 | > 10 | inactive | > 10 | > 100 | > 10 | O=C1O[C@H]2CN1CC[C@@H]2Br |
| > 100 | > 100 | inactive | > 100 | > 100 | > 100 | inactive | > 100 | > 100 | > 100 | Cc1cccc(O[C@@H]2CCNC[C@@H]2O)c1C |
| > 100 | > 100 | inactive | > 100 | > 100 | > 100 | inactive | > 100 | > 100 | > 100 | Cc1cccc(O[C@@H]2CCNC[C@H]2O)c1C |
| > 100 | > 100 | inactive | > 100 | > 100 | > 100 | inactive | > 100 | > 100 | > 100 | Cc1cccc(OCC2CN(C)C(=O)O2)c1C (stereo not given) |
| 0.473 | 0.046 | inactive | 1.27 | 2.44 | 3.32 | inactive | 5.91 | > 30 | 1.73 | Cc1cccc(O[C@H]2CCN3C[C@@H]2OC3=O)c1C (racemic) |
| 0.174 | 0.002 | inactive | 0.263 | 0.511 | 1.29 | inactive | 3.76 | > 10 | 0.403 | O=C1O[C@@H]2CN1CC[C@@H]2OCc1ccccc1 |
| 0.017 | 0.005 | inactive | 0.026 | 0.104 | 0.158 | inactive | 0.487 | 6.59 | 0.029 | O=C1O[C@@H]2CN1CC[C@@H]2Oc1ccccc1 |
| 0.696 | 0.519 | inactive | 0.994 | 1.83 | 5.17 | inactive | > 10 | > 100 | 0.606 | S=C1O[C@@H]2CN1CC[C@@H]2Oc1ccccc1 |
| 0.298 | 0.008 | inactive | 0.23 | 1.27 | 0.894 | inactive | 1.83 | > 10 | 0.191 | CC(C)CO[C@H]1CCN2C[C@H]1OC2=O |
